The text below walks through data of patent US12391653B2, “Salt form and crystal form of mutant IDH1 inhibitor and preparation method therefor” (KPC PHARMACEUTICALS, INC, priority 2019, dated 2025).

The nature of series [1]: Solid stability test (crystalline form by XRPD). In kind it is physicochemical. The procedure: According to the “Guidelines for Stability Test of Raw Materials and Preparations” (General Principles 9001 of Part Four of Chinese Pharmacopoeia 2015 Edition), crystalline form E of the compound represented by formula (I) was investigated for stability at high temperature (60° C., open), high humidity (room temperature/relative humidity 92.5%, open) and strong light (5000 lx, closed).
About 10 mg of compound represented by formula (I) was accurately weighed out, placed in a dry and clean glass bottle, spread out into a thin layer and covered with aluminum foil with small holes under the influence factor test conditions (60° C., 92.5% RH) and accelerated conditions (40° C./75% RH and 60° C./75% RH). The samples placed under the condition of light (visible light 1200000 Lux, ultraviolet 200 W) were in transparent glass bottles, with one group fully exposed and the other fully packaged with aluminum foil. Samples in duplicate were placed under each condition at each time point, and the samples for XRPD detection were placed separately. Samples placed under different conditions were sampled for XRPD detection at the planned test end point, and the test results were compared with the initial test results at Day 0.

Series [2] in a line: Hygroscopicity study by dynamic vapor sorption (DVS). In kind it is physicochemical. As to conditions: 25° C. and 80% RH. The procedure: Dynamic Vapor Sorption (DVS) Method of the Present Disclosure
Instrument model: SMS DVS intrinsic dynamic moisture adsorption instrument
Test conditions: 10 mg of the sample was weighed out and placed in a DVS sample tray for testing.
The detailed DVS parameters were as follows:
RH (%) test gradient range: 0%-95%-0%
The hygroscopicity evaluation is classified as follows:
SMS DVS intrinsic Dynamic Vapor Sorption Instrument

Series [3] is described as follows: Solid stability test (crystalline form by XRPD). As to conditions: Light (total illuminance = 1.2 × 10^6 Lux, Near UV = 200 w · hr/m^2, open). In kind it is physicochemical.
The target in series [4] is IDH1 (R132C) (Homo sapiens, UniProt O75874, R132C). Put plainly: IDH1 enzyme activity test in vitro (IDH1 R132C). Format: biochemical. The protocol: (§1) IDH1 mutant catalyzes the NADPH-dependent reduction of α-KG (α-ketoglutaric acid) to 2-HG (2-hydroxyglutaric acid), and the consumed NADPH can be read out by fluorescence.
(§2) Basic reaction buffer: 50 mM KH2PO4, pH 7.5, 10 mM […], 10% glycerol, 150 mM NaCl, 0.05% BSA (bovine serum albumin), 2 mM b-ME (2-mercaptoethanol), 0.003% Brij35 (oxyethylene lauryl ether)
(§3) Substrates and cCofactors:
(§4) 1.33× enzyme (no control wells), buffer and NADP or NADPH (control wells) were added to the wells of a reaction plate. The compounds to be tested were dissolved in 100% DMSO, then added to the enzyme mixture (Echo550, nanoliter level) and incubated for 60 min after brief centrifugation. A mixture of 4× substrate and cofactor was added to start the reaction, briefly centrifuged, shaken, and incubated at room temperature for 45 min. A mixture of 3× lipoamide dehydrogenase and resazurin was prepared, added to the reaction solution to test the amount of the generated or remaining NADPH, incubated at room temperature for 10 min after simple centrifugation, and measured using a multifunctional microplate reader Envision (Ex/Em±535/590 nm).

Series [5] deals with IDH1 wt (wild type) (Homo sapiens, UniProt O75874). Description: IDH1 enzyme activity test in vitro (IDH1 wild type). Format: biochemical. The protocol:
as §1, §2, §3
IDH1 wt (wild type): 65 μM isocitrate ±50 μM NADP
as §4

Series [6] can be described thus: Pharmacokinetic evaluation in mice. Also on record: species or system CD-1 mice. As to conditions: mouse, in vivo. The procedure:
The pharmacokinetic parameters of the compound represented by formula (I) were detected in mice.
1) Experimental drug: compound represented by formula (I);
2) Experimental animals: 8 male CD-1 mice aged 7-10 weeks, divided into 2 groups, 4 mice in each group;
3) Drug preparation: for the tail vein injection group, an appropriate amount of the drug was weighed out and dissolved in a mixed solvent of DMSO: 20% hydroxypropyl beta-cyclodextrin (HPbCD)±10:90 to prepare a solution of 0.5 mg/mL; for the gavage administration group, an appropriate amount of the drug was weighed out and dissolved in a mixed solvent of DMSO: polyoxyethylene castor oil EL (Cremophor EL): 5% sulfobutylcyclodextrin (Captisol)±5:10:85 to prepare into a suspension.
Animals in group 1 were given a single dose of 1 mg/kg drug at a concentration of 0.5 mg/mL via tail vein injection, and animals in group 2 were given the compound at a dose of 20 mg/kg at a concentration of 2 mg/mL by gavage. Animals were cross-collected for plasma samples at 0.0833 (the tail vein injection group only), 0.25, 0.5, 1, 2, 4, 6, 8 and 24 h after administration. The drug concentration in the plasma samples was determined by LC-MS/MS method, and the kinetic parameters of the tested drugs were obtained in Table 11: […]

The target in series [7] is T1, U87MG IDH1-R132H (Homo sapiens, UniProt O75874, R132H).
T1 construct: expressed in transfected cells; host or cells: U87MG
Description: IDH1 cytological activity test, 2HG content in cell culture supernatant by LC-MS. Format: cell-based. The protocol: In this study, after co-incubating the compound with IDH1 mutant cell lines, the 2HG content in the cell culture supernatant was detected by LC-MS to determine the inhibitory activity of the compound on IDH1 mutants. IDH1 catalyzes the reduction of isocitrate to α-ketoglutaric acid (α-KG) in vivo, while IDH1 mutants further catalyze the reduction of α-KG to 2-hydroxyglutaric acid (2HG).
U87MG-IDH1-R132H cell line is a stable transfected cell line that can stably express IDH1-R132H mutant by transfecting U87MG cells with IDH1-R132H, and HT1080 cell line contains endogenous IDH1-R132C mutant.
The experimental process is as follows:
1) The compound was 3-fold serially diluted with DMSO and added to a cell culture plate, with a total of 10 concentrations, each concentration in duplicate. Negative control wells contained DMSO only, and positive control wells contained BAY1436032 at a final concentration of 5 μM. The final concentration of DMSO in all wells was 0.5%.
2) The IDH1 mutant cell line was seeded into the compound-containing cell culture plate at a density of 40,000 cells/well. Cells were co-incubated with compounds for 3 days in a 37° C., 5% CO2 incubator.
3) After 3 days, 10 μl of cell culture supernatant was taken, diluted 21 times with 200 μl of ddH2O to 210 μl and mixed well. […]

Series [8] concerns the target IDH1 (R132H) (Homo sapiens, UniProt O75874, R132H). Description: IDH1 enzyme activity test in vitro (IDH1 R132H). Format: biochemical. The protocol: as §1, §2, §3, §4

T1 sequence (O75874 whole entry R132H): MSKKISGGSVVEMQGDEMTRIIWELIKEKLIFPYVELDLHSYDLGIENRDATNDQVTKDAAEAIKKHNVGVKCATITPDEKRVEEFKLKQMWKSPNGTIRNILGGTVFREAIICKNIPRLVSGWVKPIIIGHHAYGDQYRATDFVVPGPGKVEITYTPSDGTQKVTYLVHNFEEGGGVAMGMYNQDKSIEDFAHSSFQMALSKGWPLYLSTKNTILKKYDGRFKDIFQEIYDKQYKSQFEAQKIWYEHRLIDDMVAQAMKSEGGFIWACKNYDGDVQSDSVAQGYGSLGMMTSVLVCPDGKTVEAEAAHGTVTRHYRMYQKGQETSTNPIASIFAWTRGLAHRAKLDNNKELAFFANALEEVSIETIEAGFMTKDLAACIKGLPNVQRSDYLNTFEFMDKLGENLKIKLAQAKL
Sequence of IDH1 (R132C) (O75874 whole entry R132C): as the sequence (O75874 whole entry R132H) above, with H132C counted along it
Sequence of IDH1 wt (wild type) (O75874 whole entry): as the sequence (O75874 whole entry R132H) above, with H132R counted along it
Sequence of IDH1 (R132H) (O75874 whole entry R132H): as the sequence (O75874 whole entry R132H) above

With `O=C(O)CCc1ccc2c(c1)nc(Nc1ccc(OC(F)(F)F)cc1)n2[C@@H]1CCCc2ccccc21`, the Crystalline form entry in series [1] (0 days (initial)) is given as “Crystalline form B”; in series [1] (25° C./92.5% RH, open, 5 days), “Crystalline form B”; in series [1] (25° C./92.5% RH, open, 10 days), “Crystalline form B”; in series [1] (40° C./75% RH, open, 1 month) it was “Crystalline form B”; in series [1] (40° C./75% RH, open, 2 months), “Crystalline form B”; in series [1] (40° C./75% RH, open, 3 months) it was “Crystalline form B”. Moreover, the Crystalline form entry is recorded as “Crystalline form B” in series [1] (60° C., open, 5 days); “Crystalline form B” in series [1] (60° C., open, 10 days); “Crystalline form B” in series [1] (60° C./75% RH, open, 1 month); “Crystalline form B” in series [1] (60° C./75% RH, open, 2 months); “Crystalline form B” in series [3] (5 days); “Crystalline form B” in series [3] (10 days). Besides, the Hygroscopic classification result in series [2] is reported as “non-hygroscopic”. Also, in series [2], the “hygroscopic weight gain ΔW” value is 0.09%.
Turning to `O=C(O)CCc1ccc2c(c1)nc(Nc1ccc(OC(F)(F)F)cc1)n2[C@@H]1CCCc2ccccc21` [Compound represented by formula (I)], the “inhibitory effect on mutant IDH1R132C at the enzymatic level” value in series [4] is on record as “good inhibitory effect”. Besides, in series [5], the “inhibitory effect on wild-type IDH protein” value is “no inhibitory effect”. Besides, the “pharmacokinetic properties in mice” value in series [6] is given as “good pharmacokinetic properties”. Moreover, in series [7], the “2-HG inhibitory effect on U87MG glioma cells with IDH1R132H mutation” value is “good 2-HG inhibitory effect”. For the same compound, the IC50 in series [7] (2-HG inhibition, cells co-incubated with compound for 3 days) was 38.2 nM. Moreover, the “inhibitory effect on mutant IDH1R132H at the enzymatic level” value in series [8] is reported as “good inhibitory effect”.
